Experimental data from patent US9200006B2, “Protease inhibitors” (MEDIVIR AB, priority 2008, dated 2015).

How the values were obtained:
[1] = reference markers for the permeability assay; cited from earlier work
[2] = In vivo mouse PK, oral administration (FIG. 1); design: species or system male C57Bl mice; conditions: orally administered, 60 μmol/kg in 1% Methocel A4C vehicle
Source text: Various embodiments of the invention will now be described by way of illustration only with reference to the following Examples and FIG. 1 which depicts plasma concentration against time for male C57Bl mice orally administered a compound of the invention or a compound of the prior art.

[3] = Metabolic stability in whole blood; type: in vitro ADME; conditions: worked out from whole blood CLint
Protocol: Compounds of the invention and the indicated comparative examples were tested for metabolic stability in a cytosol assay in which the compounds were incubated with commercially available human hepatic cytosol fractions and the disappearance of the compound monitored by HPLC or LC/MS. Pooled human liver cytosol fractions are less likely to represent outlier individuals than blood from a single individual and can be stored frozen, unlike whole blood. The cytosol assay thus provides a consistent assay testbed as a guide to the stability of a compound in the in vivo environment, such as when exposed to whole blood.
In short, test compounds (2 μM) are incubated in pooled human liver cytosol (Xenotech LLC Lenexa US, 1 mg/mL protein in 0.1 M phosphate buffer, pH 7.4) at 37° centigrade over a one hour period. The incubations are initiated by the addition of 1 mM NADPH co-factor. Timed sub-samples were taken at 0, 20, 40 and 60 minutes and “crash precipitated” by the addition of 3 volumes of ice-cold acetonitrile. The samples were centrifuged at reduced temperature and the supernatants were separated and analyzed by LC-MS-MS.
Alternatively, an analogous stability assay is carried out in human or monkey whole blood and/or commercially available liver microsomes, such as XEN 025.

Compound	% absorption in man [1] [%]	also measured
CN(Cc1cnc2nc(N)nc(N)c2n1)c1ccc(C(=O)N[C@@H](CCC(=O)O)C(=O)O)cc1 [Methotrexate]	20	
C#C[C@@H]1CN(C(=O)[C@H](CC(C)C)NC(=O)c2ccc(-c3nc(N4CCN(C)CC4)sc3F)cc2)[C@@H]2C(=O)CO[C@H]12 [Example 2, N-[1-6-(ethynyl-3-oxo-hexahydro-furo[3,2-b]pyrrole-4-carbonyl)-3-methyl-butyl]-4-[5-fluoro-2-(4-methyl-piperazin-1-yl)thiazol-4-yl]-benzamide]		in vivo exposure (Cmax or AUC) compared with the prior art compound [2]: very much greater
N[C@@H](Cc1ccccc1)C(=O)O [L-Phenylalanine]	100	
OC[C@@H](O)[C@@H](O)[C@H](O)[C@H](O)CO [Mannitol]	16	
CC(C)C[C@H](NC(=O)c1ccc(-c2csc(N3CCN(C)CC3)n2)cc1)C(=O)N1C[C@@H](C)[C@H]2OCC(=O)[C@H]21 [comparative example]		estimated / calculated whole blood half life [3]: little over an hour
